Source: publication PMC3525792 (Bioorganic & medicinal chemistry letters, 2012)

Key:
SERT = settings: read-out: SERT binding Ki; cited from earlier work
fluorescent properties = format: physicochemical
[1] = substrate: NCCc1ccc(O)c(O)c1; assay: cells, lysate or membranes; settings: other: substrate KM, determined in parallel; mean [SE interval]

Molecule: CN(C)CCCC1(c2ccc(F)cc2)OCc2cc(-c3cccc(N)c3)ccc21 (stereo not shown) [compound 3]
- Ki (SERT): 10.4 nM

Molecule: CCN(CC)c1ccc2c(-c3ccc(S(=O)(=O)NCCCCCC(=O)NCCC(=O)Nc4cccc(-c5ccc6c(c5)COC6(CCCN(C)C)c5ccc(F)cc5)c4)cc3S(=O)(=O)[O-])c3ccc(=[N+](CC)CC)cc-3oc2c1 (stereo not shown) [compound 8]
- maximal emission wavelength (fluorescent properties): 592 nm
- maximal excitation wavelength (fluorescent properties): 570 nm

B1: hDAT (Homo sapiens) (protein)
chain: MSKSKCSVGLMSSVVAPAKEPNAVGPKEVELILVKEQNGVQLTSSTLTNPRQSPVEAQDRETWGKKIDFLLSVIGFAVDLANVWRFPYLCYKNGGGAFLVPYLLFMVIAGMPLFYMELALGQFNREGAAGVWKICPILKGVGFTVILISLYVGFFYNVIIAWALHYLFSSFTTELPWIHCNNSWNSPNCSDAHPGDSSGDSSGLNDTFGTTPAAEYFERGVLHLHQSHGIDDLGPPRWQLTACLVLVIVLLYFSLWKGVKTSGKVVWITATMPYVVLTALLLRGVTLPGAIDGIRAYLSVDFYRLCEASVWIDAATQVCFSLGVGFGVLIAFSSYNKFTNNCYRDAIVTTSINSLTSFSSGFVVFSFLGYMAQKHSVPIGDVAKDGPGLIFIIYPEAIATLPLSSAWAVVFFIMLLTLGIDSAMGGMESVITGLIDEFQLLHRHRELFTLFIVLATFLLSLFCVTNGGIYVFTLLDHFAAGTSILFGVLIEAIGVAWFYGVGQFSDDIQQMTGQRPSLYWRLCWKLVSPCFLLFVVVVSIVTFRPPHYGAYIFPDWANALGWVIATSSMAMVPIYAAYKFCSLPGSFREKLAYAIAPEKDRELVDRGEVRQFTLRHWLKV
- Km [1]: 1010[909;1120] nM
